Experimental data reported in US8263606B2 (Xenon Pharmaceuticals Inc., priority 2008, dated 2012).
Counter-ions that a name gives are not always drawn.

Experiments:
CYP3A4 = CYP3A4 (Homo sapiens, UniProt P08684); test: Cytochrome P450 (CYP450) Inhibition Assay, CYP3A4 (Vivid fluorescence, BOMCC substrate); conditions: human, P450 Baculosomes (recombinant CYP3A4), probe BOMCC (Vivid substrate)
CYP3A4, sequence (P08684 whole entry): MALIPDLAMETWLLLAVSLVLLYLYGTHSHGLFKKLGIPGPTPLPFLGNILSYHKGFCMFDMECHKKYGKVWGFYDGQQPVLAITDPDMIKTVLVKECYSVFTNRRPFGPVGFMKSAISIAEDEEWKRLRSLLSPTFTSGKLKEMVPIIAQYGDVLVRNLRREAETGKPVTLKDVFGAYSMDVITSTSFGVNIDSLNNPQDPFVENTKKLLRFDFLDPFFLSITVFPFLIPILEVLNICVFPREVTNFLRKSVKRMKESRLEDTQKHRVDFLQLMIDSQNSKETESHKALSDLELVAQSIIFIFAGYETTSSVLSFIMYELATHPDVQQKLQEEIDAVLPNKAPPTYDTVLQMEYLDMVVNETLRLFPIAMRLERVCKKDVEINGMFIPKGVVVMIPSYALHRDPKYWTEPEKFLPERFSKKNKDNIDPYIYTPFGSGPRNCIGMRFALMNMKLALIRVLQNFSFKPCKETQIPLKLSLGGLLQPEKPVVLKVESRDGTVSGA

Compound | inhibition at 10 µM (CYP3A4) [%] | melting point
CN1C(=O)C2(COc3cc4c(cc32)OCCO4)c2c(C(=O)O)cccc21 (stereo not drawn) [Example 11.77, 1′-methyl-2′-oxo-1′,2,2′,3-tetrahydrospiro[furo[2,3-g][1,4]benzodioxine-8,3′-indole]-4′-carboxylic acid] | < 50 | 297 to 299 °C
CN1C(=O)C2(COc3cc4c(cc32)OCO4)c2c(C3CCOC3)cccc21 (stereo not drawn) [Example 16.73, 1′-methyl-4′-(tetrahydrofuran-3-yl)spiro[furo[2,3-f][1,3]benzodioxole-7,3′-indol]-2′(1′H)-one] | > 50 | 182 to 184 °C
Nc1cccc(CN2C(=O)C3(COc4cc5c(cc43)OCCO5)c3ccccc32)n1 (stereo not drawn) [Example 34, 1′-[(6-aminopyridin-2-yl)methyl]-2,3-dihydrospiro[furo[2,3-g][1,4]benzodioxine-8,3′-indol]-2′(1′H)-one] | > 50 | 240 to 241 °C
O=C1Nc2cccc(O)c2C12COc1cc3c(cc12)OCCO3 (stereo not drawn) [Example 16.51, 4′-hydroxy-2,3-dihydrospiro[furo[2,3-g][1,4]benzodioxine-8,3′-indol]-2′(1′H)-one] | < 50 | > 250 °C
CN1C(=O)C2(COc3cc4c(cc32)OCCO4)c2c(C(=O)NC3CCCC3)cccc21 (stereo not drawn) [Example 16.39, N-cyclopentyl-1′-methyl-2′-oxo-1′,2,2′,3-tetrahydrospiro[furo[2,3-g][1,4]benzodioxine-8,3′-indole]-4′-carboxamide] | < 50 | 135 to 136 °C
CN1C(=O)C2(COc3cc4c(cc32)OCCO4)c2c(C(=O)NCc3ccc(F)cc3)cccc21 (stereo not drawn) [Example 16.44, N-(4-fluorobenzyl)-1′-methyl-2′-oxo-1′,2,2′,3-tetrahydrospiro[furo[2,3-g][1,4]benzodioxine-8,3′-indole]-4′-carboxamide] | < 50 | 149 to 150 °C
CN1C(=O)C2(COc3cc4c(cc32)OCCO4)c2c(N3CCOCC3)cccc21 (stereo not drawn) [Example 16.17, 1′-methyl-4′-morpholin-4-yl-2,3-dihydrospiro[furo[2,3-g][1,4]benzodioxine-8,3′-indol]-2′(1′H)-one] | < 50 | 246 to 249 °C
CN1C(=O)C2(COc3cc4c(cc32)OCCO4)c2c(NC(=O)C(C)(C)C)cccc21 (stereo not drawn) [Example 16.31, 2,2-dimethyl-N-(1′-methyl-2′-oxo-1′,2,2′,3-tetrahydrospiro[furo[2,3-g][1,4]benzodioxine-8,3′-indol]-4′-yl)propanamide] | < 50 | 182 to 184 °C
O=C1N(C(c2ccccc2)c2ccccc2)c2c(F)cccc2C12COc1cc3c(cc12)CCO3 (stereo not drawn) [Example 2.20, 1′-(diphenylmethyl)-7′-fluoro-5,6-dihydrospiro[benzo[1,2-b:5,4-b′]difuran-3,3′-indol]-2′(1′H)-one] |  | 183 to 184 °C
CCN1CCC(CN2C(=O)C3(COc4cc5c(cc43)CCO5)c3ccccc32)CC1.Cl (stereo not drawn) |  | 135 °C (dec.)
O=C1N(C(c2ccccc2)c2ccccc2)c2ccccc2C12COc1cc3c(cc12)CCCO3 (stereo not drawn) [Example 2.12, 1′-(diphenylmethyl)-6,7-dihydro-5H-spiro[furo[3,2-g]chromene-3,3′-indol]-2′(1′H)-one] |  | 208 to 211 °C
CN1CCC(CN2C(=O)C3(COc4cc(F)c(F)cc43)c3ccccc32)CC1 (stereo not drawn) (as salt: hydrochloride) [Example 11.112, 5,6-difluoro-1′-[(1-methylpiperidin-4-yl)methyl]spiro[1-benzofuran-3,3′-indol]-2′(1′H)-one hydrochloride] |  | 162 to 164 °C
CC(C)NC(=O)N1CCC(CN2C(=O)C3(COc4cc5c(cc43)CCO5)c3ccccc32)C1 (stereo not drawn) [Example 11.62, N-(1-methylethyl)-3-[(2′-oxo-5,6-dihydrospiro[benzo[1,2-b:5,4-b′]difuran-3,3′-indol]-1′(2′H)-yl)methyl]pyrrolidine-1-carboxamide] |  | 107 to 115 °C
O=C1N(C(c2ccccc2)c2ccccc2)c2ccccc2C12COc1cc3c(cc12)OCCCO3 (stereo not drawn) [Example 2.13, 1′-(diphenylmethyl)-3,4-dihydro-2H-spiro[furo[2,3-h][1,5]benzodioxepine-9,3′-indol]-2′(1′H)-one] |  | 165 to 168 °C
CCCCCN1C(=O)[C@@]2(COc3cc4c(cc32)OCCO4)c2ccccc21 [Example 7.3, (S)-1-pentyl-2,3-dihydrospiro[furo[2,3-g][1,4]benzodioxine-8,3′-indol]-2′(1′H)-one] |  | 111 to 113 °C
O=C1N(Cc2ccc(N[C@@H]3CCNC3)cc2)c2ccccc2C12COc1cc(F)c(F)cc12 (stereo partly drawn) (as salt: hydrochloride) [Example 33.2, 5,6-difluoro-1′-{4-[(3R)-pyrrolidin-3-ylamino]benzyl}spiro[1-benzofuran-3,3′-indol]-2′(1′H)-one hydrochloride] |  | 153 to 162 °C
COc1ccc(CN2C(=O)C3(COc4cc5c(cc43)OCO5)c3ccccc32)cc1 (stereo not drawn) [Example 7, 1′-(4-methoxybenzyl)spiro[furo[2,3-f][1,3]benzodioxole-7,3′-indol]-2′(1′H)-one] |  | 147 to 148 °C

Compound | inhibition at 10 µM (CYP3A4) [%] | melting point
Cc1ccc(F)c2c1N(C(c1ccccc1)c1ccccc1)C(=O)C21COc2cc3c(cc21)CCO3 (stereo not drawn) [Example 2.19, 1′-(diphenylmethyl)-4′-fluoro-7′-methyl-5,6-dihydrospiro[benzo[1,2-b:5,4-b′]difuran-3,3′-indol]-2′(1′H)-one] |  | 81 to 82 °C
COc1cc2c(cc1C)[C@]1(CO2)C(=O)N(CN2CCN(C)CC2)c2ccccc21 (as salt: chloride) [Example 11.65, (3R)-6-methoxy-5-methyl-1′-[(4-methylpiperazin-1-yl)methyl]spiro[1-benzofuran-3,3′-indol]-2′(1′H)-one hydrogen chloride] |  | > 200 °C (dec.)
O=C1N(C[C@@H]2CCCN2)c2ccccc2C12COc1cc3c(cc12)CCO3 (stereo partly drawn) [Example 11.11, 1′-[(2S)-pyrrolidin-2-ylmethyl]-5,6-dihydrospiro[benzo[1,2-b:5,4-b′]difuran-3,3′-indol]-2′(1′H)-one] |  | 83 to 86 °C
Cc1noc2cc3c(cc12)C1(CO3)C(=O)N(Cc2ccc(-c3cc(N)n[nH]3)cc2)c2ccccc21 (stereo not drawn) (as salt: hydrochloride) [Example 29.1, 1′-[4-(3-amino-1H-pyrazol-5-yl)benzyl]-3-methylspiro[furo[3,2-f][1,2]benzisoxazole-5,3′-indol]-2′(1′H)-one hydrochloride] |  | 191 to 195 °C
O=C1N(C(c2ccccc2)c2ccccc2)c2cc(F)ccc2C12COc1cc3c(cc12)CCO3 (stereo not drawn) [Example 2.5, 1′-(diphenylmethyl)-6′-fluoro-5,6-dihydrospiro[benzo[1,2-b:5,4-b′]difuran-3,3′-indol]-2′(1′H)-one] |  | 194 to 196 °C
COc1cc2c(cc1C)[C@@]1(CO2)C(=O)N(CN2CCN(C)CC2)c2ccccc21 (as salt: chloride) [Example 11.64, (3S)-6-methoxy-5-methyl-1′-[(4-methylpiperazin-1-yl)methyl]spiro[1-benzofuran-3,3′-indol]-2′(1′H)-one hydrogen chloride] |  | > 200 °C (dec.)
Cc1noc2cc3c(cc12)C1(CO3)C(=O)N(Cc2nc(C(=O)N(C)C)co2)c2ccccc21 (stereo not drawn) [Example 13.9, N,N-dimethyl-2-[(3-methyl-2′-oxospiro[furo[3,2-f][1,2]benzisoxazole-5,3′-indol]-1′(2′H)-yl)methyl]-1,3-oxazole-4-carboxamide] |  | 87 to 89 °C
Cc1ccc2c(c1)C1(COc3cc4c(cc31)OCCO4)C(=O)N2Cc1ncccc1C(F)(F)F (stereo not drawn) [Example 4.115, 5′-methyl-1′-{[3-(trifluoromethyl)pyridin-2-yl]methyl}-2,3-dihydrospiro[furo[2,3-g][1,4]benzodioxine-8,3′-indol]-2′(1′H)-one] |  | 137 to 139 °C
N#CCN1C(=O)C2(COc3cc4c(cc32)OCCO4)c2ccccc21 (stereo not drawn) [Example 5.24, (2′-oxo-2,3-dihydrospiro[furo[2,3-g][1,4]benzodioxine-8,3′-indol]-1′(2′H)-yl)acetonitrile] |  | 161 to 162 °C
CN1CCN(CN2C(=O)C3(COc4cc5c(cc43)CCO5)c3ccccc32)CC1 (stereo not drawn) (as salt: hydrochloride) |  | 181 °C (dec.)
CC(C)N1CCC(CN2C(=O)C3(COc4cc5c(cc43)CCO5)c3ccccc32)CC1.Cl (stereo not drawn) |  | 167 °C (dec.)
O=C1N(C(c2ccccc2)c2ccccc2)c2ccc(F)cc2C12COc1cc3c(cc12)CCO3 (stereo not drawn) [Example 2.4, 1′-(diphenylmethyl)-5′-fluoro-5,6-dihydrospiro[benzo[1,2-b:5,4-b′]difuran-3,3′-indol]-2′(1′H)-one] |  | 228 to 229 °C
Nc1cc(-c2ccc(CN3C(=O)C4(COc5cc6c(cc54)OCCO6)c4ccccc43)cc2)[nH]n1 (stereo not drawn) (as salt: hydrochloride) [Example 29.2, 1′-[4-(3-amino-1H-pyrazol-5-yl)benzyl]-2,3-dihydrospiro[furo[2,3-g][1,4]benzodioxine-8,3′-indol]-2′(1′H)-one hydrochloride] |  | 198 to 201 °C
O=C1N(Cc2ccc(Br)cc2)c2ccccc2C12COc1cc3c(cc12)OCO3 (stereo not drawn) [Example 4.1, 1′-(4-bromobenzyl)spiro[furo[2,3-f][1,3]benzodioxole-7,3′-indol]-2′(1′H)-one] |  | 148 to 150 °C
O=C1Nc2ccccc2C12COc1ccc3c(c12)OCCO3 (stereo not drawn) [Example 3.43, 2,3-dihydrospiro[furo[3,2-f][1,4]benzodioxine-9,3′-indol]-2′(1′H)-one] |  | 259 to 261 °C
C[n+]1c(Cl)c[nH]c1CN1C(=O)C2(COc3cc4c(cc32)OCCO4)c2ccccc21 (stereo not drawn) [Example 4.39, 1′-[(5-chloro-1-methyl-1H-imidazol-2-yl)methyl]-2,3-dihydrospiro[furo[2,3-g][1,4]benzodioxine-8,3′-indol]-2′(1′H)-one] |  | 91 to 95 °C
CNC(=O)c1cccc2c1C1(COc3cc4c(cc31)OCCO4)C(=O)N2C (stereo not drawn) [Example 16.76, N,1′-dimethyl-2′-oxo-1′,2,2′,3-tetrahydrospiro[furo[2,3-g][1,4]benzodioxine-8,3′-indole]-4′-carboxamide] |  | 120 to 122 °C
